{"source": "the supplement of paper PMC10307832", "experiment_in_all_cases": "relative viability (nuclei count vs DMSO), 5 days (fraction); higher = more cells survive", "key": {"201T": {"system": "201T", "in_short": "(§1)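 Medians of duplicate plates are given as relative viability. That measure is the nuclei count in treated wells divided by the count in vehicle wells. Counts were taken on 4× images of lung cancer cell lines in 1536-well plates, 5 days after pin-tool dosing the day after seeding with one drug alone or a fixed anchor-drug dose plus five library-drug doses (not always all listed) in √10 steps.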"}, "A-427": {"system": "A-427", "in_short": "as §1"}, "BEN": {"system": "BEN", "in_short": "as §1"}, "COR-L23": {"system": "COR-L23", "in_short": "as §1"}, "EKVX": {"system": "EKVX", "in_short": "as §1"}, "HARA": {"system": "HARA", "in_short": "as §1"}, "HCC-15": {"system": "HCC-15", "in_short": "as §1"}, "HCC-827": {"system": "HCC-827", "in_short": "as §1"}, "NCI-H1437": {"system": "NCI-H1437", "in_short": "as §1"}, "NCI-H1650": {"system": "NCI-H1650", "in_short": "as §1"}, "NCI-H1666": {"system": "NCI-H1666", "in_short": "as §1"}, "NCI-H1975": {"system": "NCI-H1975", "in_short": "as §1"}, "NCI-H2342": {"system": "NCI-H2342", "in_short": "as §1"}, "NCI-H23": {"system": "NCI-H23", "in_short": "as §1"}, "NCI-H358": {"system": "NCI-H358", "in_short": "as §1"}, "NCI-H441": {"system": "NCI-H441", "in_short": "as §1"}, "NCI-H596": {"system": "NCI-H596", "in_short": "as §1"}, "NCI-H650": {"system": "NCI-H650", "in_short": "as §1"}, "NCI-H838": {"system": "NCI-H838", "in_short": "as §1"}, "SK-MES-1": {"system": "SK-MES-1", "in_short": "as §1"}, "SW 900": {"system": "SW 900", "in_short": "as §1"}}, "data": [{"smiles": "O=c1cc(-c2cccc3c2Sc2ccccc2S3)oc(N2CCOCC2)c1", "note": "+ COc1cc2c(Oc3ccc(NC(=O)C4(C(=O)Nc5ccc(F)cc5)CC4)cc3F)ccnc2cc1OCCCN1CCOCC1 [Foretinib] (partner 0.25 µM)", "values": [{"measurement": "relative viability", "setting": "201T; first compound 0.08 µM", "result": 1.14}, {"measurement": "relative viability", "setting": "201T; first compound 0.253 µM", "result": 1.08}, {"measurement": "relative viability", "setting": "201T; first compound 0.8 µM", "result": 0.787}, {"measurement": "relative viability", "setting": "201T; first compound 2.53 µM", "result": 1.06}, {"measurement": "relative viability", "setting": "201T; first compound 8 µM", "result": 1.01}, {"measurement": "relative viability", "setting": "A-427; first compound 0.08 µM", "result": 1.05}, {"measurement": "relative viability", "setting": "A-427; first compound 0.253 µM", "result": 1}, {"measurement": "relative viability", "setting": "A-427; first compound 0.8 µM", "result": 1.06}, {"measurement": "relative viability", "setting": "A-427; first compound 8 µM", "result": 1.11}, {"measurement": "relative viability", "setting": "BEN; first compound 0.08 µM", "result": 0.485}, {"measurement": "relative viability", "setting": "BEN; first compound 0.253 µM", "result": 0.662}, {"measurement": "relative viability", "setting": "BEN; first compound 0.8 µM", "result": 0.674}, {"measurement": "relative viability", "setting": "BEN; first compound 2.53 µM", "result": 0.578}, {"measurement": "relative viability", "setting": "BEN; first compound 8 µM", "result": 0.97}, {"measurement": "relative viability", "setting": "COR-L23; first compound 0.08 µM", "result": 0.946}, {"measurement": "relative viability", "setting": "COR-L23; first compound 0.253 µM", "result": 1.11}, {"measurement": "relative viability", "setting": "COR-L23; first compound 0.8 µM", "result": 1.1}, {"measurement": "relative viability", "setting": "COR-L23; first compound 2.53 µM", "result": 0.971}, {"measurement": "relative viability", "setting": "COR-L23; first compound 8 µM", "result": 1.17}, {"measurement": "relative viability", "setting": "EKVX; first compound 0.08 µM", "result": 0.785}, {"measurement": "relative viability", "setting": "EKVX; first compound 0.253 µM", "result": 0.892}, {"measurement": "relative viability", "setting": "EKVX; first compound 0.8 µM", "result": 0.751}, {"measurement": "relative viability", "setting": "EKVX; first compound 2.53 µM", "result": 0.734}, {"measurement": "relative viability", "setting": "EKVX; first compound 8 µM", "result": 1.33}, {"measurement": "relative viability", "setting": "HARA; first compound 0.08 µM", "result": 0.934}, {"measurement": "relative viability", "setting": "HARA; first compound 0.253 µM", "result": 0.956}, {"measurement": "relative viability", "setting": "HARA; first compound 0.8 µM", "result": 0.961}, {"measurement": "relative viability", "setting": "HARA; first compound 2.53 µM", "result": 0.898}, {"measurement": "relative viability", "setting": "HARA; first compound 8 µM", "result": 0.777}, {"measurement": "relative viability", "setting": "HCC-15; first compound 0.08 µM", "result": 1.01}, {"measurement": "relative viability", "setting": "HCC-15; first compound 0.253 µM", "result": 1.14}, {"measurement": "relative viability", "setting": "HCC-15; first compound 0.8 µM", "result": 1}, {"measurement": "relative viability", "setting": "HCC-15; first compound 2.53 µM", "result": 1.08}, {"measurement": "relative viability", "setting": "HCC-15; first compound 8 µM", "result": 1.11}, {"measurement": "relative viability", "setting": "HCC-827; first compound 0.08 µM", "result": 0.94}, {"measurement": "relative viability", "setting": "HCC-827; first compound 0.253 µM", "result": 1.12}, {"measurement": "relative viability", "setting": "HCC-827; first compound 0.8 µM", "result": 1.07}, {"measurement": "relative viability", "setting": "HCC-827; first compound 2.53 µM", "result": 0.863}, {"measurement": "relative viability", "setting": "HCC-827; first compound 8 µM", "result": 1.02}, {"measurement": "relative viability", "setting": "NCI-H1437; first compound 0.08 µM", "result": 1.27}, {"measurement": "relative viability", "setting": "NCI-H1437; first compound 0.253 µM", "result": 1.41}, {"measurement": "relative viability", "setting": "NCI-H1437; first compound 0.8 µM", "result": 1.32}, {"measurement": "relative viability", "setting": "NCI-H1437; first compound 2.53 µM", "result": 1.23}, {"measurement": "relative viability", "setting": "NCI-H1437; first compound 8 µM", "result": 1.33}, {"measurement": "relative viability", "setting": "NCI-H1650; first compound 0.08 µM", "result": 1.35}, {"measurement": "relative viability", "setting": "NCI-H1650; first compound 0.253 µM", "result": 1.04}, {"measurement": "relative viability", "setting": "NCI-H1650; first compound 0.8 µM", "result": 0.998}, {"measurement": "relative viability", "setting": "NCI-H1650; first compound 2.53 µM", "result": 0.902}, {"measurement": "relative viability", "setting": "NCI-H1650; first compound 8 µM", "result": 1.19}, {"measurement": "relative viability", "setting": "NCI-H1666; first compound 0.08 µM", "result": 1}, {"measurement": "relative viability", "setting": "NCI-H1666; first compound 0.253 µM", "result": 1.07}, {"measurement": "relative viability", "setting": "NCI-H1666; first compound 0.8 µM", "result": 1.13}, {"measurement": "relative viability", "setting": "NCI-H1666; first compound 2.53 µM", "result": 0.971}, {"measurement": "relative viability", "setting": "NCI-H1666; first compound 8 µM", "result": 0.908}, {"measurement": "relative viability", "setting": "NCI-H1975; first compound 0.08 µM", "result": 0.966}, {"measurement": "relative viability", "setting": "NCI-H1975; first compound 0.253 µM", "result": 0.924}, {"measurement": "relative viability", "setting": "NCI-H1975; first compound 0.8 µM", "result": 0.931}, {"measurement": "relative viability", "setting": "NCI-H1975; first compound 2.53 µM", "result": 0.946}, {"measurement": "relative viability", "setting": "NCI-H1975; first compound 8 µM", "result": 1.02}, {"measurement": "relative viability", "setting": "NCI-H2342; first compound 0.08 µM", "result": 0.996}, {"measurement": "relative viability", "setting": "NCI-H2342; first compound 0.253 µM", "result": 1.04}, {"measurement": "relative viability", "setting": "NCI-H2342; first compound 0.8 µM", "result": 0.916}, {"measurement": "relative viability", "setting": "NCI-H2342; first compound 2.53 µM", "result": 0.917}, {"measurement": "relative viability", "setting": "NCI-H2342; first compound 8 µM", "result": 1.11}, {"measurement": "relative viability", "setting": "NCI-H23; first compound 0.08 µM", "result": 0.96}, {"measurement": "relative viability", "setting": "NCI-H23; first compound 0.253 µM", "result": 1.14}, {"measurement": "relative viability", "setting": "NCI-H23; first compound 0.8 µM", "result": 0.906}, {"measurement": "relative viability", "setting": "NCI-H23; first compound 2.53 µM", "result": 0.886}, {"measurement": "relative viability", "setting": "NCI-H23; first compound 8 µM", "result": 0.898}, {"measurement": "relative viability", "setting": "NCI-H358; first compound 0.08 µM", "result": 0.622}, {"measurement": "relative viability", "setting": "NCI-H358; first compound 0.253 µM", "result": 0.753}, {"measurement": "relative viability", "setting": "NCI-H358; first compound 0.8 µM", "result": 0.635}, {"measurement": "relative viability", "setting": "NCI-H358; first compound 2.53 µM", "result": 0.825}, {"measurement": "relative viability", "setting": "NCI-H358; first compound 8 µM", "result": 0.797}, {"measurement": "relative viability", "setting": "NCI-H441; first compound 0.08 µM", "result": 0.512}, {"measurement": "relative viability", "setting": "NCI-H441; first compound 0.253 µM", "result": 1.09}, {"measurement": "relative viability", "setting": "NCI-H441; first compound 0.8 µM", "result": 1.35}, {"measurement": "relative viability", "setting": "NCI-H441; first compound 2.53 µM", "result": 0.882}, {"measurement": "relative viability", "setting": "NCI-H441; first compound 8 µM", "result": 0.98}, {"measurement": "relative viability", "setting": "NCI-H596; first compound 0.08 µM", "result": 0.783}, {"measurement": "relative viability", "setting": "NCI-H596; first compound 0.253 µM", "result": 0.907}, {"measurement": "relative viability", "setting": "NCI-H596; first compound 0.8 µM", "result": 0.969}, {"measurement": "relative viability", "setting": "NCI-H596; first compound 2.53 µM", "result": 0.789}, {"measurement": "relative viability", "setting": "NCI-H596; first compound 8 µM", "result": 0.848}, {"measurement": "relative viability", "setting": "NCI-H650; first compound 0.08 µM", "result": 0.998}, {"measurement": "relative viability", "setting": "NCI-H650; first compound 0.253 µM", "result": 1.09}, {"measurement": "relative viability", "setting": "NCI-H650; first compound 0.8 µM", "result": 1.04}, {"measurement": "relative viability", "setting": "NCI-H650; first compound 8 µM", "result": 1.01}, {"measurement": "relative viability", "setting": "NCI-H838; first compound 0.08 µM", "result": 0.995}, {"measurement": "relative viability", "setting": "NCI-H838; first compound 0.253 µM", "result": 1.25}, {"measurement": "relative viability", "setting": "NCI-H838; first compound 0.8 µM", "result": 0.88}, {"measurement": "relative viability", "setting": "NCI-H838; first compound 2.53 µM", "result": 0.878}, {"measurement": "relative viability", "setting": "NCI-H838; first compound 8 µM", "result": 0.972}, {"measurement": "relative viability", "setting": "SK-MES-1; first compound 0.08 µM", "result": 0.952}, {"measurement": "relative viability", "setting": "SK-MES-1; first compound 0.253 µM", "result": 1.13}, {"measurement": "relative viability", "setting": "SK-MES-1; first compound 0.8 µM", "result": 0.645}, {"measurement": "relative viability", "setting": "SK-MES-1; first compound 2.53 µM", "result": 0.611}, {"measurement": "relative viability", "setting": "SK-MES-1; first compound 8 µM", "result": 0.775}, {"measurement": "relative viability", "setting": "SW 900; first compound 0.08 µM", "result": 0.772}, {"measurement": "relative viability", "setting": "SW 900; first compound 0.253 µM", "result": 1.27}, {"measurement": "relative viability", "setting": "SW 900; first compound 0.8 µM", "result": 1.05}, {"measurement": "relative viability", "setting": "SW 900; first compound 2.53 µM", "result": 0.723}, {"measurement": "relative viability", "setting": "SW 900; first compound 8 µM", "result": 0.648}]}]}
